US5593966A, “Peptide derivatives of cytochrome b558 and their use as medicaments” (The United States of America as represented by the …, priority 1990, dated 1997)
Where a SMILES comes first, the peptide text is derived from it.

Assays:
NADPH oxidase [1] = target: T1, NADPH oxidase (Homo sapiens, UniProt P14598); test: Cell-free NADPH oxidase assay (arachidonate-stimulated O2 generation, neutrophil membrane plus cytosol); type: biochemical; details: 100 μM synthetic peptide; arachidonate-stimulated O2 production; mean of n experiments in duplicate
T1 construct: Neutrophils were electropermeabilized as described; endogenous in cells; host or cells: electropermeabilized peripheral blood neutrophils (PMN), stimulated with PMA or fMLP
T1 sequence (P14598 1-390): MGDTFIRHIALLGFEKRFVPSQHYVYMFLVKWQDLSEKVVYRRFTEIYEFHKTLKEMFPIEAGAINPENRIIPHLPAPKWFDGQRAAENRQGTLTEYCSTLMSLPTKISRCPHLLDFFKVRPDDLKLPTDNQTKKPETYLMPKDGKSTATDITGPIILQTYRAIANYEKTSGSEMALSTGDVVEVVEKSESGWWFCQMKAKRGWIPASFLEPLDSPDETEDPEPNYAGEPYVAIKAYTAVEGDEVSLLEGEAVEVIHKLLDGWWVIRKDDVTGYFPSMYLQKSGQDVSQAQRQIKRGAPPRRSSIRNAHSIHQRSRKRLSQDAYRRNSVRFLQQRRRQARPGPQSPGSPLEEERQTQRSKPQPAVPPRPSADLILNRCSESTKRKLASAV
Description: Neutrophils were isolated from peripheral blood and cytosol and membrane fractions were prepared by differential centrifugation as previously described (Nunoi et al, Science, 242, 1298-1301 (1988)). Typical yields of cytosol and membrane proteins obtained were 2.8±0.1 mg/10^8 cell equivalents and 1.5±0.1 μg/10^6 cell equivalents, respectively (mean±SD, 3 separate preparations). The cell-free assay of O2 generation was modified as follows: wells contained 2.5-5.0×10^5cell equivalents neutrophil membrane, 10^6 cell equivalents neutrophil cytosol in a final volume of 100 μl reaction mixture (150 μM acetylated ferricytochrome c (11), 4 mM MgCl2, 10 μM FAD, 1 mM EGTA, 200 μM NADPH, 40 μM arachidonic acid, 10 μM GTPγ S, ±25 μg/ml superoxide dismutase in 75 mM potassium phosphate, pH 7.0). Because membrane preparations varied in activity, the amount of membrane added per well was adjusted to yield an arachidonate-stimulated O2 production of ≈0.4 nmol/min/well in the absence of synthetic peptide. The maximal linear rate of superoxide dismutase-inhibitable acetylferricytochrome c reduction (ΔO.D. […]) was converted to nmol O2 generated/min using an instrument-corrected extinction coefficient derived empirically as described (Leslie, J. Immunol. Methods, 103, 253-259 (1987)). To measure oxidase inhibition by antibodies directed against the 91 kDa subunit of cytochrome b558 membranes were solubilized in 1% deoxycholate, incubated for 30 min on ice with an equal volume of serum at various dilutions. Diluting these samples 10-fold with H2 O lowered the detergent concentration below the CMC and allowed sedimentation (130,000 g×30 min) of an oxidase-competent membrane fraction. This fraction was resolubilized in deoxycholate, and assayed for arachidonate-stimulatedO2 generation in the presence of cytosol.
In Table 1 above, the cell-free assay of O2 generation contained 2.5-5.0×10^5 cell equivalents of neutrophil (PMN) membrane, 10^6 cell equivalents PMN cytosol in a final volume of 100 μl reaction mixture. Because membrane preparations varied in activity, the amount of membrane added per well was adjusted to yield an arachidonate-stimulated O2 production of ≈0.4 nmol/min/well in the absence of synthetic peptide. Data represent the mean percent inhibition obtained in n experiments (each performed in duplicate) in the presence of 100 μM synthetic peptide compared to a simultaneous buffer control.

NADPH oxidase [2] = target: T1, NADPH oxidase; test: Permeabilized cell NADPH oxidase assay (electropermeabilized neutrophils stimulated with PMA or fMLP); type: cell-based; details: for Mean inhibition vs. buffer control (n), Electropermeabilized cell, PMA: PMA 10 ng/ml; for Mean inhibition vs. buffer control (n), Electropermeabilized cell, PMA / Mean inhibition vs. buffer control (n), Electropermeabilized cell, FMLP: preincubation with 800 μM peptide, assay with 200 μM peptide; for Mean inhibition vs. buffer control (n), Electropermeabilized cell, FMLP: fMLP 10 μM
Description: Neutrophils were electropermeabilized as described (Grinstein et al, J. Biol. Chem., 263, 1779-1783 (1988)), incubated on ice for 30 min in permeabilization buffer (140 mM KCl, 1 mM MgCl2, 1 mM EGTA, 0.193 mM CaCl2, 1 mM ATP, 2 mM NADPH, 10 μM GTP, 10 mM glucose, 10 mM HEPES-N-methylglucamine, pH 7) supplemented with synthetic peptide (800 μM). The cells were resuspended at 5×10^6 /ml in the same buffer containing 200 μM synthetic peptide, 150 μM acetylferricytochrome c, catalase (2500 U/ml), ±25 μg/ml superoxide dismutase. Wells containing 5×10^5 cells were stimulated with PMA (10 ng/ml) or fMLP (10 μM) and O2^-- production was determined as above.
Electropermeabilized PMN were incubated on ice in permeabilization buffer supplemented with synthetic peptide (800 μM). The cells were resuspended at 5×10^6 /ml in the same buffer containing 200 μM synthetic peptide. Wells containing 5×10^5 cells were stimulated with PMA (10 ng/ml) or fMLP (10 μM) and O2 production was determined as described in "Experimental Procedures". […] Electropermeabilized PMN sham incubated without synthetic peptides and stimulated with […] or fMLP generated 8.4±1.1 nmol O2 /min/10^6 cells and 8.9±1.7 nmol O2 /min/10^6 cells, respectively (mean±SEM, 5 independent experiments).

Compound | Mean inhibition vs. buffer control (n), Cell-free assay (NADPH oxidase [1]) | Mean inhibition vs. buffer control (n), Electropermeabilized cell, PMA (NADPH oxidase [2]) | Mean inhibition vs. buffer control (n), Electropermeabilized cell, FMLP (NADPH oxidase [2]) | Inhibition of O2 production by electropermeabilized neutrophils (in words) (NADPH oxidase [2]; stimulated with fMLP or PMA)
NC(N)=NCCC[C@H](NC(=O)[C@H](Cc1ccccc1)NC(=O)[C@@H]1CCCN1C(=O)[C@H](CO)NC(=O)[C@H](Cc1ccccc1)NC(=O)CNC(=O)[C@@H]1CCCN1C(=O)[C@@H]1CCCN1C(=O)[C@@H](N)CCCN=C(N)N)C(=O)O [Bradykinin] (H-RPPGFSPFR-OH) | -8% | -8% | -6% | –
RGVHFIFNKENF [Residues 559-570 of the 91 kDa subunit of cytochrome b558] | 93% | 61% | 67% | inhibited
CC(C)[C@H](NC(=O)[C@H](C)NC(=O)[C@H](Cc1c[nH]c2ccccc12)NC(=O)[C@H](CC(N)=O)NC(=O)CN)C(=O)N[C@@H](CC(N)=O)C(=O)N[C@@H](CCC(=O)O)C(=O)NCC(=O)N[C@@H](CS)C(=O)O [GNWAVNEGC] (H-GNWAVNEGC-OH) | -17% | – | – | –
CC[C@H](C)[C@H](NC(=O)[C@H](Cc1ccccc1)NC(=O)[C@H](Cc1c[nH]cn1)NC(=O)[C@@H](NC(=O)CNC(=O)[C@H](CCCNC(=N)N)NC(=O)[C@@H]1CCCN1C(=O)CNC(=O)[C@H](CO)NC(=O)[C@H](CCC(=O)O)NC(=O)[C@H](CO)NC(=O)[C@H](CC(N)=O)NC(=O)[C@@H](N)CO)C(C)C)C(=O)N[C@@H](Cc1ccccc1)C(=O)N[C@@H](CC(N)=O)C(=O)N[C@@H](CCCCN)C(=O)N[C@@H](CCC(=O)O)C(=O)N[C@@H](CC(N)=O)C(=O)N[C@@H](Cc1ccccc1)C(=O)O [SNSESGPRGVHFIFNKENF] (H-SNSESGPRGVHFIFNKENF-OH) | 96% | – | – | –
CC(C)C[C@H](NC(=O)[C@@H](N)Cc1c[nH]cn1)C(=O)N[C@@H](Cc1ccccc1)C(=O)N[C@@H](CC(N)=O)C(=O)N[C@H](C(=O)N[C@@H](CCC(=O)O)C(=O)N[C@@H](Cc1c[nH]c2ccccc12)C(=O)N[C@@H](CS)C(=O)O)C(C)C [HLFNVEWC] (H-HLFNVEWC-OH) | -17% | -6% | 6% | –
CC[C@H](C)[C@H](NC(=O)[C@@H](NC(=O)[C@H](C)NC(=O)[C@H](CCC(N)=O)NC(=O)[C@H](Cc1ccccc1)NC(=O)CNC(=O)[C@H](C)NC(=O)[C@H](Cc1c[nH]cn1)NC(=O)[C@H](C)NC(=O)[C@H](CCCNC(=N)N)NC(=O)[C@H](CCCCN)NC(=O)[C@@H](N)CCCNC(=N)N)[C@@H](C)O)C(=O)O [RKRAHAGFQATI] (H-RKRAHAGFQATI-OH) | -5% | -11% | -28% | –
CSCC[C@H](NC(=O)[C@H](CO)NC(=O)[C@H](Cc1ccccc1)NC(=O)[C@@H](N)C(C)C)C(=O)N[C@@H](Cc1ccccc1)C(=O)N[C@@H](CCC(N)=O)C(=O)NCC(=O)N[C@@H](CCC(=O)O)C(=O)N[C@@H](CCC(=O)O)C(=O)N[C@@H](CO)C(=O)O [VFSMFQGEES] (H-VFSMFQGEES-OH) | 10% | 3% | -5% | –
CC[C@H](C)[C@H](NC(=O)[C@H](Cc1ccccc1)NC(=O)[C@H](Cc1c[nH]cn1)NC(=O)[C@@H](NC(=O)CNC(=O)[C@@H](N)CCCNC(=N)N)C(C)C)C(=O)N[C@@H](Cc1ccccc1)C(=O)O [RGVHFIF, Arg--Gly--Val--His--Phe--Ile--Phe] (H-RGVHFIF-OH) | 97% | 72% | 73% | –
NC(=O)C[C@H](NC(=O)[C@@H](N)CO)C(=O)N[C@@H](CO)C(=O)N[C@@H](CCC(=O)O)C(=O)N[C@@H](CO)C(=O)NCC(=O)N1CCC[C@H]1C(=O)O [SNSESGP] (H-SNSESGP-OH) | -8% | -1% | 2% | –
